From ChEMBL document CHEMBL1154002, “GPR109a agonists. Part 1: 5-Alkyl and 5-aryl-pyrazole-tetrazoles as agonists of the human orphan G-protein coupled receptor GPR109a” (Bioorg Med Chem Lett, 2009)

Assays:
[1] = Volume of distribution at steady state in C57BL/6 mouse at 1 mg/kg, iv and 2 mg/kg, po; assay type: ADME, organism-based; conditions: in vivo, read-out: Vdss
[2] = Bioavailability in C57BL/6 mouse at 1 mg/kg, iv and 2 mg/kg, po; assay type: ADME, organism-based; conditions: in vivo
[3] = Plasma clearance in C57BL/6 mouse at 1 mg/kg, iv and 2 mg/kg, po; assay type: ADME, organism-based
[4] = Plasma half life in C57BL/6 mouse at 1 mg/kg, iv and 2 mg/kg, po; assay type: ADME, organism-based
Mus musculus [5] = test: Reduction in plasma free fatty acid level in C57B1/6 mouse at 10 mg/kg after 15 mins; assay type: functional; parameters: scale not given: the % may be the effect or the level left
Mus musculus [6] = test: Toxicity in C57B1/6 mouse assessed as cutaneous flushing at 30 mg/kg after 15 mins by laser doppler method; assay type: organism-based; parameters: dose 30 mg/kg; conditions: in vivo

Structure (SMILES) | Vd [1] | bioavailability [2] | clearance [3] | half-life [4] | Activity (Mus musculus [5]) | Activity (Mus musculus [6])
CCCC1Cc2[nH]nc(-c3nnn[nH]3)c2C1 (stereo unspecified) | 1.55 L/kg | 51% | 1.8 L/h/kg | 2.9 h | – | –
Fc1cccc(C2Cc3[nH]nc(-c4nnn[nH]4)c3C2)c1 (stereo unspecified) | 1.79 L/kg | 57% | 2.82 L/h/kg | 1.8 h | – | –
CCCCC1Cc2[nH]nc(-c3nnn[nH]3)c2C1 (stereo in doubt; 8d) | 0.7 L/kg | 34% | 1.26 L/h/kg | 1.5 h | – | –
Fc1cc(F)c(F)c(C2Cc3[nH]nc(-c4nnn[nH]4)c3C2)c1 (stereo in doubt; 9o) | 1.1 L/kg | 10% | 1.62 L/h/kg | 2.4 h | 24% | Non-toxic
O=C(O)c1cccnc1 [NIACIN] | 1 L/kg | 100% | 8.7 L/h/kg | – | – | –
